In patent US9878984B2, “Anti-cancer compounds” (NORTHWESTERN UNIVERSITY, priority 2008, dated 2018):
“Also recorded” adds a separate entry of the source.

Columns and labels:
Format in all cases: cell-based, human
HeLa cells [1] = assay: Transwell invasion assay; details: [GI99%], matrigel, 20 hr
Description: Transwell Invasion Assay: HeLa cells were plated at 250,000 per 35 mm well and allowed to attach for 8 hr. The cells were washed with PBS and then treated for 4 hr with the [GI99%] of each compound (or 1% DMSO—vehicle control) in serum free media to decrease the number of invading cells in the beginning of the experiment due to a preliminary lack of drug exposure. The cells were then trypsinized and counted by trypan blue exclusion with a hemacytometer (Sigma—St. Louis, Mo.). Eight micron pore size control well inserts for 12 well plates (BD Biosciences) were coated with 100 μL 1 mg/mL matrigel (Sigma—St. Louis, Mo.) and allowed to solidify at room temperature for 1 hr. The excess matrigel was aspirated and the inserts were gently washed with PBS. The cells were seeded at a density of 300,000 per insert well in a volume of 500 μL serum free media containing a derivative or vehicle. The inserts were then placed in wells containing 700 μL serum free media with the respective compound. After 20 hr the cells on the top of the membranes were gently removed with a cotton swab, the membranes then were fixed in methanol for 1 min, stained in Gills No. 3 Hematoxylin (Sigma—St. Louis, Mo.) for 5 min, rinsed in tap water, and allowed to dry overnight. The membranes were excised, mounted on slides, and the cells were counted under the 40× objective of a bright field microscope. The data are expressed as the average total number of invading cells counted in 20 fields of each membrane, as standardized to the vehicle control, from six experiments.
Effect of derivatives on the malignant phenotype—invasion assay: If A1-A9 have differential targets, DNA binding specificity, or downstream effects they may differentially alter the malignant behavior of cells. Also, anti-cancer compounds can be efficacious against tumors in other ways besides inhibiting growth and inducing death of cancer cells; they can also alter the behavior of malignant cells. Therefore, the ability of A1-A9 and amonafide to alter the invasive behavior of cancer cells in a transwell (also known as Boyden chamber) invasion assay was evaluated, which determines the ability of cells to migrate through a proteinacious gel. This behavior is considered to be representative of cancer cell invasion through the basement membrane of the primary tumor environment. In this assay, treated cells are seeded on to the top of the matrigel-coated porous membrane, allowed to invade through the proteinacious gel onto the underside of the membrane, and then counted.

[2] = test system: topoisomerase II (topo II); assay: Topoisomerase II inhibition assay (topo II-DNA cleavable complexes in treated cells); details: HeLa cells, [GI99%], 20 hr, normalized to mitoxantrone
Description: In Vitro Topoisomerase Inhibition: HeLa cells were plated at a density of 1.5 million in 35 mm wells and allowed to attach for 20 hr. They were then treated with each compound at the [GI99%] in 10 mL media for 20 hr. In vitro topoisomerase II inhibition was quantified using TopoGEN's Topoisomerase II In vivo Link Kit according to the protocol included with the kit and according to a previously published protocol [24] with slight modifications. In summary, DNA was isolated from sarkosyl lysed cells, layered on a cesium chloride gradient (total volume ˜7 mL), ultra-centrifuged, and then fractionated to 0.5 mL. The fractions were diluted 1:4 v/v in PBS and the fractions containing the genomic DNA were determined by measuring the absorbance at 260 nm for each fraction. The fractions were then loaded into a slot blotting apparatus and pulled through a nitrocellulose membrane by vacuum. The membrane was blocked in 5% w/v milk in 1×TBST (blotto) for 2 hr, incubated in 1:5,000 v/v topoisomerase II (topo II) primary antibody (TopoGEN) in blotto for 1 hr, washed, and incubated in 1:2,000 v/v HRP conjugated anti-rabbit secondary antibody (Jackson—West Grove, Pa.) in blotto for 45 min, washed and developed with SuperSignal West Pico Chemiluminescent Substrate (Pierce—Rockford, Ill.). The data were processed by dividing the intensity of the 2 or 3 most intense topo II immuno-reactive bands by the amount of DNA in the respective fractions. The band intensity was determined by scanning the developed films with a Kodak Image Station 440 CF and measuring the average pixel intensity of an area slightly larger than each band and subtracting the median background pixel intensity of the perimeter of the same area using Kodak MI software. Etoposide (TopoGEN) and mitoxantrone (Sigma—St. Louis, Mo.) are topo II inhibitors used as positive controls. […] Data were standardized to mitoxantrone in each of three independent experiments. […]

HeLa cells [3] = assay: MTS growth inhibition assay, HeLa cells; details: concentration used in topo II assay
Description: Cell Culture: HeLa (cervical carcinoma), WI-38 (normal human […] fibroblasts), and MDA-MB-231 (breast carcinoma), cells were cultured in DMEM (Invitrogen—Carlsbad, Calif.) and PC-3M (metastatic prostate carcinoma) cells were cultured in RPMI-1640. Peripheral blood mononuclear cells (PBMCs) were voluntarily collected from a healthy laboratory worker by standard sterile phlebotomy techniques and isolated using Vacutainer CPT collection tubes (BD Biosciences—Bedford, Mass.). PBMCs were isolated freshly for each experiment. All DMEM and RPMI-1640 media was supplemented with 10% FBS (Atlanta Biologicals—Lawrenceville, Ga.) and 100 U/mL penicillin and streptomycin (Invitrogen). HUVEC (Human umbilical vein endothelial cells) were cultured in EGM-2 media with supplements provided in the manufacturers BulletKit (Lonza—Walersville, Md.). All cells were maintained at 37° C. and in a 5% CO2 atmosphere.
Growth Inhibition Assays: HeLa, MDA-MB-231, PC-3M, WI-38, and HUVEC cells were plated at 5,000 cells per well in 96 well plates and allowed to attach for 20 hr (8 hr for HeLa). The media was removed and 198 μL of fresh media was added to each well. […] Cell proliferation was measured at t=0 (time at start of treatment) and t=72 hr using MTS AQueous non-radioactive proliferation assay (Promega—Madison, Wis.). […] The absorbance at 490 nm in each well was read with a Spectramax 250 plate reader (Molecular Devices—Sunnyvale, Calif.). […] Data were fit to one site dose response curves in order to obtain specific growth inhibitory concentrations and the relative standard errors of the mean for these concentrations were calculated by the XLfit4 software. Statistical significance (p value) for the selectivity and all subsequent assays was determined with the two tailed homoscedastic Student's t-test. […]

HeLa cells [4] = assay: Perinucleolar compartment (PNC) prevalence reduction; details: [GI50%] for 72 hr
Description: Perinucleolar Compartment (PNC) Reduction: HeLa cells (PNC prevalence ˜85%) were plated 5,000/well in glass bottom 96 well plates and allowed to attach for 8 hr. The cells were then treated with compounds at the respective [GI50%] for 72 hr and [GI99%] for 20 hr for each compound (total media volume was 200 μL/well with 1% DMSO). After treatment cells were immunofluorescently stained as previously described, but with a Texas Red labeled secondary antibody (Jackson) instead of a FITC labeled secondary antibody. PNC prevalence (% of non-apoptotic/non-mitotic cells with 1 or more PNCs) was determined by scoring >200 cells per well with fluorescent microscope (60× objective) and images were acquired with the digital camera and image acquisition software previously mentioned. Scale bar=10 μm. Data are expressed as the average PNC prevalence (% control) of three individual experiments.
The PNC is a unique structural marker that it is only found in malignantly transformed cancer cells, irrespective of tissue origin, and indicates cells that are capable of metastasis. […] Previous studies indicate that the PNC likely conveys a functional metastatic advantage to cancer cells. The PNC prevalence (% of cells with one or more PNC) in human breast cancer positively correlates with the progression of the disease and is always near 100% in distant metastases. […] The PNC prevalence reduction was determined for amonafide and A1-A9 at the respective [GI50%] and [GI99%] doses in HeLa cells, which have a high PNC prevalence of ˜85%.

Chk2 = assay: DNA damage response assay (pThr68-Chk2 / total Chk2 western blot); details: HeLa cells, [GI99%], 20 hr, normalized to mitoxantrone
Description: DNA Damage Response Assay: 250,000 HeLa cells were plated in 35 mm culture dishes and allowed to attach for 8 hr and were then treated with the [GI99%] of each compound for 20 hr (total media volume was […] with 1% DMSO). After treatment cells were lysed in 150 μL detergent buffer containing 1:100 v/v protease inhibitor cocktail (Sigma—St. Louis, Mo.). Lysates were run on denaturing 12% acrylamide gels and transferred to nitrocellulose membranes. The membranes were blocked in blotto, incubated in anti-pThr68-Chk2 antibody (Cell Signaling—Danvers, Mass.) at 1:500 v/v dilution in blotto overnight 4° C., washed, incubated in HRP conjugated anti-rabbit secondary antibody (Jackson) at 1:5,000 v/v dilution in blotto for 1 hr, and then developed. The membranes were then stripped with a reducing buffer, blocked in blotto, incubated in anti-Chk2 antibody (Biolegend—San Diego, Calif.) at 1:500 v/v dilution in blotto overnight at 4° C., washed, incubated in HRP conjugated anti-mouse secondary antibody (Jackson) at 1:5,000 v/v dilution in blotto for 1 hr, and then developed. Membranes were developed with PicoWest Developing Solution (Pierce) and exposed to film. The intensities of bands were quantified as described in the previous section. The data are expressed as the average ratio of pThr68-Chk2 to total Chk2 as normalized to the mitoxantrone control in each of three independent experiments.
Topoisomerase inhibition by most mechanisms should cause activation of DNA damage response pathways because of the production of single and double strand DNA breaks, as is the case with amonafide. […] Therefore, measuring the DNA damage response at a fixed cytotoxic dose ([GI99%]) will determine the extent that DNA damage contributes to the cytotoxicity of these compounds. […] Activation of Chk2 was determined by measuring the ratio of pThr68-Chk2 to total Chk2 in HeLa cells treated with the [GI99%].

SMILES | invasive behavior (% invading cells vs vehicle) (HeLa cells [1]) | stabilization of topo II-DNA cleavable complexes [2] | [IC99%] (HeLa cells [3]) [µM] | also measured
C=CCNc1ccc2c3c(cccc13)C(=O)N(CCN(C)C)C2=O [A3, 6-allylamino-2-[2-(dimethylamino)ethyl]-1H-benz[de]isoquinoline-1,3(2H)-dione] | did not significantly alter the invasive behavior of HeLa cells compared to the control |  |  | 
CC[C@@]1(O)C(=O)OCc2c1cc1n(c2=O)Cc2cc3ccccc3nc2-1 [camptothecin] |  | did not cause the stabilization of topo II-DNA cleavable complexes | 0.28 | 
COCCNc1ccc2c3c(cccc13)C(=O)N(CCN(C)C)C2=O [A4, 6-methoxyethylamino-2-[2-(dimethylamino)ethyl]-1H-benz[de]isoquinoline-1,3(2H)-dione] | greatly decreases invasion compared to amonafide and control |  |  | PNC prevalence reduction at [GI50%] (HeLa cells [4]): able effectively reduce the PNC; also recorded: reduces PNC prevalence to the same extent as amonafide; also recorded: can significantly reduce PNC prevalence
O=C1c2c(O)ccc(O)c2C(=O)c2c(NCCNCCO)ccc(NCCNCCO)c21 [mitoxantrone] |  | caused formation of abundant drug stabilized topo II-DNA cleavable complexes | 1.01 | 
COc1cc([C@@H]2c3cc4c(cc3[C@@H](O[C@@H]3O[C@@H]5CO[C@@H](C)O[C@H]5[C@H](O)[C@H]3O)[C@H]3COC(=O)[C@H]23)OCO4)cc(OC)c1O [etoposide] |  | caused formation of abundant drug stabilized topo II-DNA cleavable complexes | 9.62 | 
CCCNc1ccc2c3c(cccc13)C(=O)N(CCN(C)C)C2=O [A2, 6-propylamino-2-[2-(dimethylamino)ethyl]-1H-benz[de]isoquinoline-1,3(2H)-dione] |  |  |  | DNA damage response (ratio of pThr68-Chk2 to total Chk2) (Chk2): evoked the strongest DNA damage response
CCN(CC)c1ccc2c3c(cccc13)C(=O)N(CCN(C)C)C2=O [A8, 6-diethylamino-2-[2-(dimethylamino)ethyl]-1H-benz[de]isoquinoline-1,3(2H)-dione] | did not significantly alter the invasive behavior of HeLa cells compared to the control |  |  | 
